For experiment [1], the species on record is Mus musculus. The experiment is described as follows: Activity against Forest virus infection in mice. Type of experiment: functional.
Experiment [2] relates to Mus musculus. The experiment can be described thus: Activity against Forest virus infection in mice after intraperitoneal administration of 100 mg/kg. Type of experiment: functional.
Experiment [3] relates to Mus musculus. The experiment is described as follows: Activity against Forest virus infection in mice after intraperitoneal administration of 200 mg/kg. It counts as functional.
Experiment [4] is filed under the species Mus musculus. The experiment can be described thus: Mean survival time of Forest virus infected mice that died; survivors lived through 21 days. It counts as functional.
Experiment [5] concerns Mus musculus. The experiment can be described thus: Mean survival time of Forest virus infected mice that died; survivors lived through 21 days after intraperitoneal administration of 100 mg/kg. Type of experiment: functional.
The subject of experiment [6] is Mus musculus. The experiment can be described thus: Mean survival time of Forest virus infected mice that died; survivors lived through 21 days after intraperitoneal administration of 200 mg/kg. It counts as functional.
In another experiment the test system is Rattus norvegicus. The experiment is described as follows: Compound at a dose 100 mg/kg was administered to rat and Percent survivors after coronavirus infection in suckling rats. Type of experiment: functional.
For experiment [7], the species on record is Mus musculus. The experiment is described as follows: Mean survival time of San Angelo virus infected mice that died; survivors lived through 21 days. It counts as functional.
For experiment [8], the system named is Mus musculus. The experiment is described as follows: Mean survival time of San Angelo virus infected mice that died; survivors lived through 21 days after intraperitoneal administration of 10 mg/kg. Type of experiment: functional.
The test system of experiment [9] is Mus musculus. The experiment can be described thus: Mean survival time Forest virus infectedof mice that died; survivors lived through 21 days after intraperitoneal administration of 25 mg/kg. It counts as functional.
The species named for experiment [10] is Mus musculus. The experiment is described as follows: Mean survival time mice that died; survivors lived through 21 days. Type of experiment: functional.
Experiment [11] relates to Mus musculus. The experiment is described as follows: Activity against Forest virus infection in mice, ip. It counts as functional.
For experiment [12], the system named is Mus musculus. The experiment is described as follows: Activity against San Angelo virus infection in mice after intraperitoneal administration of 25 mg/kg. Type of experiment: functional.
Experiment [13] relates to Mus musculus. The experiment is described as follows: Activity against San Angelo virus infection in mice after intraperitoneal administration of 50 mg/kg. Type of experiment: functional.
For experiment [14], the system named is Mus musculus. The experiment can be described thus: Activity against Forest virus infection in mice after intraperitoneal administration of 50 mg/kg. It counts as functional.
Experiment [15] relates to Mus musculus. The experiment is described as follows: Mean survival time of San Angelo virus infected mice that died; survivors lived through 21 days after intraperitoneal administration of 25 mg/kg. Type of experiment: functional.
Experiment [16] has as its system Mus musculus. The experiment can be described thus: Mean survival time of San Angelo virus infected mice that died; survivors lived through 21 days after intraperitoneal administration of 50 mg/kg. It counts as functional.
The test system of experiment [17] is Mus musculus. The experiment is described as follows: Mean survival time of Forest virus infected mice that died; survivors lived through 21 days after intraperitoneal administration of 50 mg/kg. Type of experiment: functional.
The species named for experiment [18] is Mus musculus. The experiment is described as follows: Activity against San Angelo virus infection in mice. It counts as functional.
Experiment [19] concerns Mus musculus. The experiment can be described thus: Activity against San Angelo virus infection in mice after intraperitoneal administration of 10 mg/kg. Type of experiment: functional.
Experiment [20] has as its system Mus musculus. The experiment is described as follows: Activity against Forest virus infection in mice after intraperitoneal administration of 25 mg/kg. It counts as functional.
The test system of experiment [21] is Mus musculus. The experiment is described as follows: Activity against Forest virus infection in mice after oral administration of 200 mg/kg. It counts as functional.
In experiment [22] the test system is Mus musculus. The experiment is described as follows: Mean survival time of San Angelo virus infected mice that died; survivors lived through 21 days after intraperitoneal administration of 100 mg/kg. Type of experiment: functional.
Experiment [23] has as its system Mus musculus. The experiment is described as follows: Mean survival time of Forest virus infected mice that died; survivors lived through 21 days after oral administration of 200 mg/kg. It counts as functional.
Experiment [24] relates to Mus musculus. The experiment is described as follows: Activity against San Angelo virus infection in mice after intraperitoneal administration of 100 mg/kg. It counts as functional.
The species named for experiment [25] is Mus musculus. The experiment can be described thus: Inhibition of […] murine melanoma artificial metastasis in lungs of C57BL/6j mice expressed as average of B16-F10 colonies in lungs from 6 or 7 mice on 17th day (no. of mice = 6). It counts as functional, Lung.
Experiment [26] is filed under the species Mus musculus. The experiment is described as follows: Inhibition of […] murine melanoma artificial metastasis in lungs of C57BL/6j mice expressed as average of B16-F10 colonies in lungs from 6 or 7 mice on 18-19th days (no. of mice = 7). It counts as functional, Lung.

Where only a bound is given, the exact number is not on record here.

For the compound `Nc1nc(O)c2c(C(=O)O)cn(C3O[C@H](CO)[C@@H](O)[C@H]3O)c2n1` (some centres undefined), the Survivors in the experiment filed under Mus musculus [1] was 17%; in the experiment on Mus musculus [2] it was 8%; in the experiment with Mus musculus [3], 33%. In addition, the Mean survival is 6.8 days in the experiment filed under Mus musculus [4], 8.1 days in the experiment on Mus musculus [5] and 6 days in the experiment with Mus musculus [6].
In the experiment on Rattus norvegicus, `Cn1c(=S)n(C2O[C@H](CO)[C@@H](O)[C@H]2O)c2nc(N)nc(O)c21` (some centres undefined) yielded a Survivors of 58%.
Regarding `Nc1nc(O)c2cc(Cl)n(C3O[C@H](CO)[C@@H](O)[C@H]3O)c2n1` (some centres undefined), the Mean survival is 7.2 days in the experiment filed under Mus musculus [7]; 8 days in the experiment on Mus musculus [8]; 6 days with Mus musculus [9]; 7 days in the experiment filed under Mus musculus [10]; above 21 days with Mus musculus [15]; above 21 days with Mus musculus [16]. The Mean survival in the experiment listed under Mus musculus [4] is 6.5 days; with Mus musculus [5], 7 days; with Mus musculus [17], above 21 days. For the same compound, the Survivors in the experiment with Mus musculus [11] came out at 8%; in the experiment with Mus musculus [12] it was 100%; in the experiment with Mus musculus [13] it was 100%; in the experiment with Mus musculus [2] it was 92%; with Mus musculus [14], 100%; in the experiment filed under Mus musculus [18] it was 18%. Besides, the figures for the Survivors in the experiment on Mus musculus [19], in the experiment with Rattus norvegicus and in the experiment on Mus musculus [20] were 58%, 92% and 92%, respectively.
With `Nc1nc2c(ccn2[C@@H]2O[C@H](CO)[C@@H](O)[C@H]2O)c(=O)[nH]1`, the Mean survival is 7.9 days in the experiment listed under Mus musculus [7]; above 21 days with Mus musculus [22]; 9 days in the experiment on Mus musculus [15]; above 21 days in the experiment on Mus musculus [16]; 7.4 days in the experiment listed under Mus musculus [4]; 6.5 days with Mus musculus [5]. The Mean survival in the experiment with Mus musculus [17] is 6 days; in the experiment with Mus musculus [23] it was 8 days. Further, the Survivors in the experiment on Mus musculus [12] was found to be 92%; with Mus musculus [13], 100%; in the experiment listed under Mus musculus [1], 8%; in the experiment with Mus musculus [2], 83%; with Mus musculus [14], 83%; in the experiment on Mus musculus [21], 83%. Further, the figures for the Survivors in the experiment listed under Mus musculus [18] and in the experiment with Mus musculus [24] were 33% and 100%, respectively. Besides, the Mean came to 0.14 in the experiment listed under Mus musculus [25] and 0.17 in the experiment filed under Mus musculus [26].
Regarding `N#Cc1cn(C2O[C@H](CO)[C@@H](O)[C@H]2O)c2nc(N)nc(O)c12` (some centres undefined), the values for the Survivors in the experiment filed under Mus musculus [1] and with Mus musculus [2] were 8% and 50%, respectively. For the same compound, the values for the Mean survival in the experiment filed under Mus musculus [4] and in the experiment on Mus musculus [5] were 6 days and 8.5 days, respectively.
Turning to `Nc1nc(=O)c2sc(=O)n([C@@H]3O[C@H](CO)[C@@H](O)[C@H]3O)c2[nH]1` [ISATORIBINE], the Survivors in the experiment with Rattus norvegicus was found to be 83%.
The same measure, in the same setting: in the case of `Cn1c(=O)n(C2O[C@H](CO)[C@@H](O)[C@H]2O)c2nc(N)nc(O)c21` (some centres undefined) it was 75%.

Source of the values: ChEMBL document CHEMBL1126611, “Modulation of leukocyte genetic expression by novel purine nucleoside analogues. A new approach to antitumor and antiviral agents” (1993).
